Experimental data published in ChEMBL document CHEMBL1201862, “PubChem BioAssay data set” (2004).
Activity calls are given as the source filed them.

Assays:
[1] = target: T1, Runt-related transcription factor 1/Core-binding factor subunit beta (Homo sapiens, UniProt Q01196+Q13951); assay: disruptors of Runt domain/CBFb-SMMHC interaction – biochemical, FRET, Cerulean-Runt, Venus-CBFb-SMMHC, uHTS, […] (AID 1434); format: protein assay
[2] = target: T2, Endoribonuclease toxin MazF (Escherichia coli K-12, UniProt P0AE70); assay: activation of MazEF endoribonuclease cleavage – biochemical, fluorescence, single-stranded RNA substrate, uHTS hits, dose response (AID 588481); format: functional
T2 sequence (P0AE70 whole entry): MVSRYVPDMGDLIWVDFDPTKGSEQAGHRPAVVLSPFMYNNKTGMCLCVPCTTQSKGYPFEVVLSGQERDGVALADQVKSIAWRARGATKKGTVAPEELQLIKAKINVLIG

[3] = target: T2, Endoribonuclease toxin MazF; assay: substrate-only fluorescence increase artefacts – biochemical, single-stranded RNase substrate, counter-screen for MazEF activator project, dose response (AID 588502); format: functional
[4] = target: T1, Runt-related transcription factor 1/Core-binding factor subunit beta; assay: Runt domain/CBFb-SMMHC interaction disruptors – biochemical, TR-FRET (AID 1438); format: protein assay
[5] = target: T3, Voltage-gated N-type calcium channel alpha-1B subunit/Amyloid beta A4 precursor protein-binding family A member 1 (Homo sapiens, UniProt Q00975+Q02410); format: protein assay
[6] = target: T3, Voltage-gated N-type calcium channel alpha-1B subunit/Amyloid beta A4 precursor protein-binding family A member 1; format: protein assay; remark: listed apart in the source
[7] = target: Potassium voltage-gated channel subfamily KQT member 2 (Rattus norvegicus, UniProt O88943); assay: potentiation of rat KCNQ2 current – cell-based, retigabine-insensitive compounds, dose response (AID 2654); format: functional
Trypsin = Trypsin (Sus scrofa, UniProt P00761); assay: trypsin protease activity blockade – biochemical, quenched peptide fluorescence, cherry-pick, selectivity assay for Rce1 protease inhibitor project, dose response (AID 488789)
HeLa = assay: ATP-based viability loss in HeLa cells – cell-based, CellTiter-Glo luminescence, cherry-pick samples, cytotoxicity control for MITF activator project, dose response (AID 540259); format: functional; settings: Homo sapiens
[8] = target: T4, Corticotropin-releasing factor receptor 2/Corticotropin-releasing factor-binding protein (Homo sapiens, UniProt P24387+Q13324); assay: activators of CRF receptor 2 with binding protein – uHTS hits, confirmation (AID 602473); format: functional; settings: read-out: EC50_Mean
T4 sequence (Q13324 whole entry): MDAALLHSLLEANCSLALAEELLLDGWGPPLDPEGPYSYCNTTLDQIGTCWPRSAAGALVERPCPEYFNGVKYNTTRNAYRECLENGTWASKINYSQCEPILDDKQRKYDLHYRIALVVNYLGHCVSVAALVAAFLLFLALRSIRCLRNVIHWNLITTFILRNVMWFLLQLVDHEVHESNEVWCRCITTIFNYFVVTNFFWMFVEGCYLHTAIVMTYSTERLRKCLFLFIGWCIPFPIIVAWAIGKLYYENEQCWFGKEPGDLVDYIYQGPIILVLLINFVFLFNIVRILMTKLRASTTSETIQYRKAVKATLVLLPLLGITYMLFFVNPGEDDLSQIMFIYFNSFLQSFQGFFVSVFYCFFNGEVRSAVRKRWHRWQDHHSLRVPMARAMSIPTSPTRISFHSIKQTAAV
T4 sequence (P24387 whole entry): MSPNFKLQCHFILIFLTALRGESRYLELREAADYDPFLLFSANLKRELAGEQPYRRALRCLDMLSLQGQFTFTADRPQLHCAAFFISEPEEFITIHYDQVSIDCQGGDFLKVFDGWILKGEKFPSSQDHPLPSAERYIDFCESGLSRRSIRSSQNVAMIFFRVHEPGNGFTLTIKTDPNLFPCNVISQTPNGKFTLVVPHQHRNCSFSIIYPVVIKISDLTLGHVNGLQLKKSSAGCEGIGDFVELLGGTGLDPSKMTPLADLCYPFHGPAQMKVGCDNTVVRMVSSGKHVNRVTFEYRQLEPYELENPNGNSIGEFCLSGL

[9] = target: T4, Corticotropin-releasing factor receptor 2/Corticotropin-releasing factor-binding protein; assay: Dose Response confirmation of uHTS hits for small molecule antagonists of the CRF-binding protein and CRF-R2 receptor complex.; format: functional; settings: read-out: IC50_Mean
[10] = target: T5, Carboxy-terminal domain RNA polymerase II polypeptide A small phosphatase 1 (Homo sapiens, UniProt Q9GZU7); assay: CTDSP1 inhibitors, concentration-response, biochemical, absorbance readout, ultra-high-throughput screen actives (AID 540297); format: functional
T5 sequence (Q9GZU7 whole entry): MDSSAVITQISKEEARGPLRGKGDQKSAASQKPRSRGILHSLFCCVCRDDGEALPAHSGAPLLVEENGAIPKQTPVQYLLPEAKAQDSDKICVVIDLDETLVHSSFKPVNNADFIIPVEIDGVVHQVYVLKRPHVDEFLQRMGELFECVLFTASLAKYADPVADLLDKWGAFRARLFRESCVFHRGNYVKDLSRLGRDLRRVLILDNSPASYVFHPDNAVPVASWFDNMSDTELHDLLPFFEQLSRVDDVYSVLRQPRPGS

[11] = target: Eukaryotic translation initiation factor 4E (Mus musculus, UniProt P63073); assay: blockers of eIF4G binding by eIF4E – biochemical, TR-FRET, dose response (AID 855); format: functional;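 also: potency for disrupting eIF4E binding to eIF4GI seen as loss of FRET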
Cytochrome P450 2D6 = Cytochrome P450 2D6 (Homo sapiens, UniProt P10635);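 also: CYP2D6 member of a cytochrome P450 panel assay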
[12] = target: T6, Rac GTPase-activating protein 1 (Homo sapiens, UniProt Q9H0H5); assay: blockers of MgcRacGAP-driven Rac1 GTP hydrolysis – biochemical, ADP Hunter fluorescence, primary and confirmatory, confirmation (AID 624330); format: functional
T6 sequence (Q9H0H5 whole entry): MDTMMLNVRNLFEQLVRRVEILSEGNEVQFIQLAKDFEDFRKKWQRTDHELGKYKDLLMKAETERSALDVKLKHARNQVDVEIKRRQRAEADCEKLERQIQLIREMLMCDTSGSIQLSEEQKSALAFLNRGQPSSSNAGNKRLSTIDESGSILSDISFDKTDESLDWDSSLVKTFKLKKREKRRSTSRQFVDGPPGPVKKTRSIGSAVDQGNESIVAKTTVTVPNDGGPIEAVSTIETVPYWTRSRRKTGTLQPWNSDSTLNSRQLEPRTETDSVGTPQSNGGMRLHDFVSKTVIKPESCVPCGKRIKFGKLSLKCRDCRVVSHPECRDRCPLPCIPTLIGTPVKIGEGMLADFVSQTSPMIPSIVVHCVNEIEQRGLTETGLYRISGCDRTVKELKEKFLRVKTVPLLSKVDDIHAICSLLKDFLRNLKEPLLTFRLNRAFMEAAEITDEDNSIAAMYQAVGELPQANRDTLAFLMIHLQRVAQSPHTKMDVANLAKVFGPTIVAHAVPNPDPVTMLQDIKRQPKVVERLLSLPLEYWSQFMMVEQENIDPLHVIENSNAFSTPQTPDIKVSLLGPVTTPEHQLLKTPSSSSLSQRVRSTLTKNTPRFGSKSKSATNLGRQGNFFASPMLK

[13] = target: T7, Polyadenylate-binding protein 1 (Homo sapiens, UniProt P11940); assay: MLLE binding blockers, Cy5 peptide tracer – biochemical, fluorescence polarization, Cy5-PAM2 peptide, secondary, miRNA deadenylation inhibitor project, dose response (AID 602260); format: functional; settings: read-out: IC50_Mean
[14] = target: T7, Polyadenylate-binding protein 1; assay: MLLE domain peptide-binding blockers, IC50 – biochemical, fluorescence polarization, FITC-PAM2 peptide, dose response (AID 602259); format: functional; settings: read-out: IC50_Mean
[15] = target: T8, Serine/threonine-protein phosphatase (Candida dubliniensis (strain CD36 / CBS 7987 / NCPF 3949 / NRRLY-17841) (Yeast), UniProt B9W6M3); assay: blockers of CaCl2-induced CDRE-lacZ signaling – S. cerevisiae, luminescence, secondary, dose response (AID 2388); format: functional, cell-based;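 also: yeast reporter cells carrying a calcineurin-responsive lacZ construct stimulated with calcium chloride; luminescent beta-galactosidase reporter signal in whole cells rather than isolated phosphatase activity; potency for inhibition where a drop in reporter signal means calcineurin blockade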
T8 sequence (B9W6M3 whole entry): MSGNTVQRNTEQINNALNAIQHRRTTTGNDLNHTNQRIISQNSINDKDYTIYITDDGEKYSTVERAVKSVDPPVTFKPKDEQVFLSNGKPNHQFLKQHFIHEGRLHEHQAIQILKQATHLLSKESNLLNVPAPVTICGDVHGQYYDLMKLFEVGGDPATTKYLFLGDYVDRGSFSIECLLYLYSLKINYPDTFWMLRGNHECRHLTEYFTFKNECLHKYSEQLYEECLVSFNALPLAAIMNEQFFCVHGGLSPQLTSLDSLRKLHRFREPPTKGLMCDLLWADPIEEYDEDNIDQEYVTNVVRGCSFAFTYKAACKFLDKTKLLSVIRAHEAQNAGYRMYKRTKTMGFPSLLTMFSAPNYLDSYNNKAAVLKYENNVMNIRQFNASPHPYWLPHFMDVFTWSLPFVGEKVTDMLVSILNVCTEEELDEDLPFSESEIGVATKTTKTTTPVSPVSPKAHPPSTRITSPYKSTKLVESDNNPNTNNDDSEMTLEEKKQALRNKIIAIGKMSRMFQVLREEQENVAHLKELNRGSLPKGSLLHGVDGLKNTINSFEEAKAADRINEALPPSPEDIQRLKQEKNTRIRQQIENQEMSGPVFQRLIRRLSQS

[16] = target: ATP-dependent molecular chaperone HSP82 (Candida albicans (strain WO-1) (Yeast), UniProt C4YTQ8); assay: steroid-induced GRE reporter decrease in yeast – S. cerevisiae, luminescence, Hsp90 inhibitor project, dose response (AID 2400); format: functional, cell-based;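 also: beta-galactosidase luminescence from glucocorticoid response element reporter as proxy for Hsp90 function; inhibitor potency where signal loss means Hsp90 inhibition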
[17] = target: Voltage-dependent T-type calcium channel subunit alpha-1H (Homo sapiens, UniProt O95180); format: functional;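 also: channel activity triggered by adding a high calcium stimulation buffer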
[18] = NIH-3T3 fibroblast cytotoxicity, dose response, cytotoxicity control, cell-based, fluorescence, Alamar Blue, secondary assay (AID 2327); format: functional;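 also: NIH-3T3 mouse fibroblasts cultured with fluconazole at 8 µg/mL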
[19] = fluconazole-exposed Candida albicans growth modulators – fluorescence, retest, confirmation (AID 2467); format: functional, cell-based
[20] = system: Streptococcus sp. 'group A'; assay: Streptococcus pyogenes SK(-)GAS viability under kanamycin – luminescence, BacTiterGlo, confirmation, counter-screen for streptokinase expression inhibitor project, dose response (AID 1900); format: functional, organism-based
Streptococcus = assay: GAS UMAA2166 growth inhibition – luminescence, BacTiterGlo, counter-screen for streptokinase expression inhibitor project, dose response (AID 1915); format: functional, organism-based;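 also: potency for reduction of bacterial viability or growth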
[21] = HEK-293T cell viability reduction – luminescence, B-cell screen hits, cytotoxicity control for BCR NF-kB inhibitor project, dose response (AID 489021); format: functional, cell-based;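 also: HEK-293T cells carrying an NF-kB luciferase reporter; cells exposed to compound for about 14 hours before viability readout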
[22] = target: T9, Heat shock factor protein 1 (Mus musculus, UniProt P38532); assay: decrease of HSF1-responsive luciferase luminescence – cell-based, NIH3T3, dose retest, confirmation (AID 2382); format: functional;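 also: NIH3T3 fibroblasts with HSF1-driven luciferase reporter stressed by proteasome inhibitor MG132; luminescence from HSF1-driven luciferase expression after 8 hours of MG132 stress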
T9 sequence (P38532 whole entry): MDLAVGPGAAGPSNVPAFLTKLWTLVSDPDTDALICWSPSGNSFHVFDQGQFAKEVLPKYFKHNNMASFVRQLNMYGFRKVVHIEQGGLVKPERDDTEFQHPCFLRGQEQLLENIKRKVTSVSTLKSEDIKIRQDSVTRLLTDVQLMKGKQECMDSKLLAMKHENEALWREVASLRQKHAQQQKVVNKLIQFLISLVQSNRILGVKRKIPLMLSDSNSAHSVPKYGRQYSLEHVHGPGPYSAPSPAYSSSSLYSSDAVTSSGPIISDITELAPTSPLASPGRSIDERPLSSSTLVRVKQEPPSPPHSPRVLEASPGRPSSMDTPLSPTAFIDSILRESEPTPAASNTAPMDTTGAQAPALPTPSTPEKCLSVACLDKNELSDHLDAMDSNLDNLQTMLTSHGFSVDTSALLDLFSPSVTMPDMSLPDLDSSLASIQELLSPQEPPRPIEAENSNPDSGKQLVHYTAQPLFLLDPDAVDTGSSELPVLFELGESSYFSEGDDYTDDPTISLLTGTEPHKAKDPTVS

Large T antigen = Large T antigen (Simian virus 40, UniProt P03070); format: functional, Betapolyomavirus macacae;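 also: Confirmatory-stage PubChem screen for compounds that inhibit SV40 T antigen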
[23] = target: Dual specificity tyrosine-phosphorylation-regulated kinase 1A (Rattus norvegicus, UniProt Q63470); format: biochemical, Homo sapiens

Chain of Potassium voltage-gated channel subfamily KQT member 2 (O88943 whole entry): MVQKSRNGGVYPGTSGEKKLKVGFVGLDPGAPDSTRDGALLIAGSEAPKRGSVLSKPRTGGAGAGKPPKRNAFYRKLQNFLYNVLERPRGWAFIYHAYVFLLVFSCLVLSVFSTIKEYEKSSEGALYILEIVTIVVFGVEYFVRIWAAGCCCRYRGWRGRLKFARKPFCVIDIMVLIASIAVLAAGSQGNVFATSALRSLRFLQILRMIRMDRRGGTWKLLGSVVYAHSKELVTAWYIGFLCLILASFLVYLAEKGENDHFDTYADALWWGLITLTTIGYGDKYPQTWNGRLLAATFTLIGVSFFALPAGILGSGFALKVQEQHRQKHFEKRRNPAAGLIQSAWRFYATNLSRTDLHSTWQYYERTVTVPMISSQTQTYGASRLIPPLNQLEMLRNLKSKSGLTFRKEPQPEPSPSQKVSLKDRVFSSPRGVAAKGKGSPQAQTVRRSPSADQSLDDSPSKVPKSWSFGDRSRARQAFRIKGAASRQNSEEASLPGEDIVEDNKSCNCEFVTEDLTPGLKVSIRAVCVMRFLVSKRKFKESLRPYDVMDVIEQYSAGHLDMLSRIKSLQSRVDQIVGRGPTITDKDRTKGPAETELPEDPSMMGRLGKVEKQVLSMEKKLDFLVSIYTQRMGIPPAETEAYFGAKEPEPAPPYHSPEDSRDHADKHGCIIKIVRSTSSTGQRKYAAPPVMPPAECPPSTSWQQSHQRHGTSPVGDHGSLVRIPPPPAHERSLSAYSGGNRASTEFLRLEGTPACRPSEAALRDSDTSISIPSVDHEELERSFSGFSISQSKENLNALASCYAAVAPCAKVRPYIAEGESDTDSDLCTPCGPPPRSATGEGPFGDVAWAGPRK
Chain of Eukaryotic translation initiation factor 4E (P63073 whole entry): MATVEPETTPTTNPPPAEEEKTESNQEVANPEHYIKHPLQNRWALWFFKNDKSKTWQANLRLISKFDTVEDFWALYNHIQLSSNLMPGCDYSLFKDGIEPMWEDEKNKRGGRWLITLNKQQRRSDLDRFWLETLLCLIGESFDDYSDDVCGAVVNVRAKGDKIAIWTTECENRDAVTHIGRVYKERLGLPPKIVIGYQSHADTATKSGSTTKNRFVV
T1 sequence (Q01196 whole entry, the tested form may be a part): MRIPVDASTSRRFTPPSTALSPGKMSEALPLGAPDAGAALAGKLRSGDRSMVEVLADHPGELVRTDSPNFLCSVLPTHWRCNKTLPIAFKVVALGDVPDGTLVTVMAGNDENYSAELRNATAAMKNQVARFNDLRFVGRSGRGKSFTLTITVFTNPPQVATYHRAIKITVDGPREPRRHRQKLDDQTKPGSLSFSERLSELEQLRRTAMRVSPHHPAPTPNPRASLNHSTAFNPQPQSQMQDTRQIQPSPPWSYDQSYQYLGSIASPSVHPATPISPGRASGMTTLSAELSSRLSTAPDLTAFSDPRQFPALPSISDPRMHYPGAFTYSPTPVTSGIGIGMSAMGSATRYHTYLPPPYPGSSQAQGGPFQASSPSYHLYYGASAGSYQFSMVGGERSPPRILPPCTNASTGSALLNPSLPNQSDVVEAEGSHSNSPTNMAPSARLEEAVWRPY
T1 sequence (Q13951 whole entry, the tested form may be a part): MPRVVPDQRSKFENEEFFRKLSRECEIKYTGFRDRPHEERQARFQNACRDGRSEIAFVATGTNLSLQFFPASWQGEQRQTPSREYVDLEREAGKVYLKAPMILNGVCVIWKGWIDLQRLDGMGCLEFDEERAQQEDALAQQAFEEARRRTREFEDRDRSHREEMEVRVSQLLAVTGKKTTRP
T7 sequence (P11940 whole entry, the tested form may be a part): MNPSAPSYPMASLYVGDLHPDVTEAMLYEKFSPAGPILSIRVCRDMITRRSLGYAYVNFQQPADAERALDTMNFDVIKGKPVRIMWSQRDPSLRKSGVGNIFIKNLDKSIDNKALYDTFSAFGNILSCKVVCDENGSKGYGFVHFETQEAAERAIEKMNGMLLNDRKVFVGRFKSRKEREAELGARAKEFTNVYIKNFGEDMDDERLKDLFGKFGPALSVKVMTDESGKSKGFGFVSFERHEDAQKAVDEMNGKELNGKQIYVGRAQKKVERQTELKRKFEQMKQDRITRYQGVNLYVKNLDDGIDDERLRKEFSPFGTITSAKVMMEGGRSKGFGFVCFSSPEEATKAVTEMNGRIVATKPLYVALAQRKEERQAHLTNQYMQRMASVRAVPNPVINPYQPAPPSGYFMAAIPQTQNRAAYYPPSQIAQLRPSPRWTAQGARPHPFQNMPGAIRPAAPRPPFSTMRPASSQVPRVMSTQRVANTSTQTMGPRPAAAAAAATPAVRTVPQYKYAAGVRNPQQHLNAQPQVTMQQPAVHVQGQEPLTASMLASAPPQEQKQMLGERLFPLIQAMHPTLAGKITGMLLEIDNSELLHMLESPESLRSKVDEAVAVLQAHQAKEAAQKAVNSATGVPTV
Chain of Large T antigen (P03070 whole entry): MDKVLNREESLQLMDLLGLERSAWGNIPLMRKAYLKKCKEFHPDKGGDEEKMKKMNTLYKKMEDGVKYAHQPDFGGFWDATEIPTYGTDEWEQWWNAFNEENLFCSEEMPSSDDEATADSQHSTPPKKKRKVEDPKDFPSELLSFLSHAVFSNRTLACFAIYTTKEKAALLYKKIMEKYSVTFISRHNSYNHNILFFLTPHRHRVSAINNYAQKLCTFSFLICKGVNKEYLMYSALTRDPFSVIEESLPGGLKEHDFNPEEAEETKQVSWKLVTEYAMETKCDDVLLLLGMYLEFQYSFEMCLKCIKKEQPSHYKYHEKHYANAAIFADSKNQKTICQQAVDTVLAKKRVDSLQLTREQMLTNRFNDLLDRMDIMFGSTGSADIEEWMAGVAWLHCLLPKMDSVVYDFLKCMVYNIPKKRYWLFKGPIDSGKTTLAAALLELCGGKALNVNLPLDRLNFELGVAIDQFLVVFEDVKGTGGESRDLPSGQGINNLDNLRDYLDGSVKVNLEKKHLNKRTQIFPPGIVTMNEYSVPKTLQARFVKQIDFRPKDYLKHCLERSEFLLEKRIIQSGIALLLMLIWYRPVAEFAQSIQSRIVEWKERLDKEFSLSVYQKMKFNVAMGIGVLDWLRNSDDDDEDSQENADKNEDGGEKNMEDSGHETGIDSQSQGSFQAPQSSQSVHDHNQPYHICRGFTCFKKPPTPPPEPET
Chain of ATP-dependent molecular chaperone HSP82 (C4YTQ8 whole entry): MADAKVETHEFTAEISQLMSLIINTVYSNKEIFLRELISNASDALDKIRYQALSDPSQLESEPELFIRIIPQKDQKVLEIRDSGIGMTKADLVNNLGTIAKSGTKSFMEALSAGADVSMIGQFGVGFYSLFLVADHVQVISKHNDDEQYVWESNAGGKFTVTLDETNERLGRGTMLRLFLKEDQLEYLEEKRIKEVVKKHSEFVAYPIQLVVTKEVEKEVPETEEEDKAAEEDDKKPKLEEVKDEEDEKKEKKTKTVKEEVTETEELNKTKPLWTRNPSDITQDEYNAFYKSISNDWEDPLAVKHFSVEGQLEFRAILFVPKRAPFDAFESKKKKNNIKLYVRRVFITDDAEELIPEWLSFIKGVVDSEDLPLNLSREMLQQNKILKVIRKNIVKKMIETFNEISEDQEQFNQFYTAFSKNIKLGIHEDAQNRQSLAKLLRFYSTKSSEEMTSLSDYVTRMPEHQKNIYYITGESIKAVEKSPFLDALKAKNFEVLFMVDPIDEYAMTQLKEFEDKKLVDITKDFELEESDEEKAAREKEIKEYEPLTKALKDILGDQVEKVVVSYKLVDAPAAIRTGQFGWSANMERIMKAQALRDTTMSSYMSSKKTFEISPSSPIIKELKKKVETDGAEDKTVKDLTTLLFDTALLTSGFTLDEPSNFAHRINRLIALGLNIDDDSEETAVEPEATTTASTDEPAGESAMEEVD
Chain of Trypsin (P00761 whole entry): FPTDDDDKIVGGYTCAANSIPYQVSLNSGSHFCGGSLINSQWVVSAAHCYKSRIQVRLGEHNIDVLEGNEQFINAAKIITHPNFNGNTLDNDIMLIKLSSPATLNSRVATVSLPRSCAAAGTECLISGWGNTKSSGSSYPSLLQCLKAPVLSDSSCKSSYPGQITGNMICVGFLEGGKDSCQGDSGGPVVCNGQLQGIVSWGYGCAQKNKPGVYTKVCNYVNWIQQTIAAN
Chain of Cytochrome P450 2D6 (P10635 whole entry): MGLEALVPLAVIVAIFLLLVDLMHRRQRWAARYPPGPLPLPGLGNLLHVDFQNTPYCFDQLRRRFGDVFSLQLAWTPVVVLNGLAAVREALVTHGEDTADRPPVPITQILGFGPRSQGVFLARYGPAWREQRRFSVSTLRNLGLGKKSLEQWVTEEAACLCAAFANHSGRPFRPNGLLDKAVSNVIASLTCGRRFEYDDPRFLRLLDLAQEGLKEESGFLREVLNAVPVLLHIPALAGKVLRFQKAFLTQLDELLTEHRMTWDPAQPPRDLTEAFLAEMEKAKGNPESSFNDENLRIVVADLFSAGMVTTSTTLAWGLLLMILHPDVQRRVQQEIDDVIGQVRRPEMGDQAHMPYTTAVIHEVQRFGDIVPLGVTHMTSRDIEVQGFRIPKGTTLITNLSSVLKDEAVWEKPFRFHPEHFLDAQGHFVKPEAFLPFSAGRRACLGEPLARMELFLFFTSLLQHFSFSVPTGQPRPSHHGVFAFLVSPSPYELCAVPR

COc1ccc2nc(N3CCCC3)c(C#N)cc2c1
IC50 [1]: 2.04 µM (active) | EC50 [2]: > 99 µM (inactive) | EC50 [3]: > 99 µM (inactive) | IC50 [4]: > 100 µM (inactive)

O=C(CCN1C(=O)/C(=C/c2ccccc2Cl)SC1=S)NC1C=CS(=O)(=O)C1 (stereo unspecified)
IC50 [5]: > 50 µM (inactive) | IC50 [6]: 5.41 µM (active)

O=C(Nc1cccnc1)Nc1ccc(F)c(Cl)c1
EC50 [7]: 4.21 µM (active)

O=C(NC1CC1)c1ccc2c(c1)N(Cc1ccccc1)CCS2
AC50 (Trypsin): 6.54 µM (active)

Cc1ccc(NC(=O)C2C3/C=C\CCCCC32)cc1 (stereo unspecified)
AC50 (HeLa): 197 µM (active)

CCCCc1ccc(NC(=S)Nc2cccnc2)cc1
EC50 [7]: 268 µM (active) | EC50 [8]: > 53 µM (inactive) | IC50 [9]: > 47.1 µM (inactive)

N#Cc1ccc(C(=O)NC2CCCCCCC2)cc1
AC50 (HeLa): 55 µM (active)

CN(Cc1ccccc1)C(=O)COC(=O)/C=C/c1ccco1
IC50 [10]: 12.5 µM (active) | IC50 [11]: 50 µM (inactive)

CC(C)(C)c1[nH]nc2c1C(c1ccc(OC(=O)c3ccco3)cc1)C(C#N)=C(N)O2 (stereo unspecified)
IC50 [11]: > 64 µM (inactive) | AC50 (Cytochrome P450 2D6): 15.8 µM (inconclusive)

COc1cccc(Nc2ccc(N3CCCCC3)cc2)c1OC
IC50 [12]: 9.65 µM (active) | IC50 [13]: > 66 µM (inactive) | IC50 [14]: 21.4 µM (inactive) | AC50 (HeLa): 252 µM (active)

CCSc1ccc2nnc(-c3cccc(F)c3)n2n1
IC50 [11]: > 64 µM (inactive)

COc1ccc(-c2nnc(NC(=O)c3cc(Cl)ccc3Cl)o2)cc1
EC50 [15]: > 180 µM (inactive) | EC50 [16]: 18 µM (active) | EC50 [17]: 10.8 µM (active) | EC50 [18]: > 150 µM (inactive) | EC50 [19]: 0.815 µM (active) | EC50 [20]: 2.64 µM (active) | EC50 (Streptococcus): 7.89 µM (active)

Cc1ccc(/C=C2\SC(=S)N(CCCC(=O)Nc3cccnc3)C2=O)cc1
IC50 [21]: > 80 µM (inactive) | EC50 [22]: 0.255 µM (active)

O=C(Nc1ccc(F)nc1)Nc1cccc(F)c1
EC50 [7]: 5.76 µM (active)

N#Cc1c(-c2ccncc2)c2c([nH]c1=O)-c1ccccc1OC2
IC50 [1]: 1.04 µM (active) | IC50 [4]: > 100 µM (inactive)

O=C1NC(=O)/C(=C/c2ccc(O)cc2)S1
IC50 (Large T antigen): 10.1 µM (active) | AC50 [23]: 0.414 µM (active)
